“And” between values parts separate entries of the source, which are not always exact repeats. Equal values may be shown once.
What was measured:
[1] = HPLC studies of reaction kinetics of tetrazine prodrugs with cyclooctyne alkynes (Kobs, second-order rate constant k2); type: physicochemical; conditions: for Kobs: prodrug 25 μM; for k2 at 37° C. (second order rate constant) / k2 at r.t (second order rate constant): PBS containing 10% DMSO, n = 3
Summary of the method: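 Tetrazine prodrug (25 μM) reacted with alkyne at 0.75, 1 and 1.25 mM in PBS with 10% DMSO, at room temperature or 37 °C. Prodrug HPLC peak area was sampled every 30 min and fitted to single exponential decay for kobs; k2 was taken as the slope of kobs versus alkyne concentration.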

[2] = Determination of the lactonization rate constants (k1) by HPLC; type: physicochemical; conditions: for Lactonization rate constant k1: r.t., PBS (15% DMSO)
Experimental: General procedure for the determination of the lactonization rate constants. To a 9 mL PBS in a 20-mL vial was added a solution of the respective tetrazine prodrug (500 μL, 500 μM). Then 1 mL of the respective alkyne (50 mM in DMSO) was added to afford a final concentration of 5 mM in PBS (15% DMSO). The reaction was stirred at r.t. Every 30 min about 500 μL the reaction mixture was taken out and 20 μL of them was injected into the HPLC by an autosampler; the rest of them was poured back to the reaction mixture. The reaction rate constant, k1, was determined by fitting the area in HPLC chromatogram of the intermediate versus time using eq. 3: Y=A exp(−k1t) eq. 3 where Y is the intermediate areas, and t is the time.

Compound C#CCOc1ccc(-c2nnc(C(=O)NCCCOCCOCCOCCCNS(=O)(=O)c3cccc4c(N(C)C)cccc34)nn2)cc1 [1d] has a Kobs ([1]; 37° C., alkyne 2b 0.75 mM, Expt. 1) of 0.411 h⁻¹, a Kobs ([1]; 37° C., alkyne 2b 0.75 mM, Expt. 2) of 0.388 h⁻¹ and a Kobs ([1]; 37° C., alkyne 2b 0.75 mM, Expt. 3) of 0.353 h⁻¹. For the same compound, the Kobs ([1]; 37° C., alkyne 2b 1.00 mM, Expt. 1) was 0.548 h⁻¹, the Kobs ([1]; 37° C., alkyne 2b 1.00 mM, Expt. 2) was 0.511 h⁻¹ and the Kobs ([1]; 37° C., alkyne 2b 1.00 mM, Expt. 3) was 0.453 h⁻¹. It also gave a Kobs ([1]; 37° C., alkyne 2b 1.25 mM, Expt. 1) of 0.695 h⁻¹, a Kobs ([1]; 37° C., alkyne 2b 1.25 mM, Expt. 2) of 0.636 h⁻¹ and a Kobs ([1]; 37° C., alkyne 2b 1.25 mM, Expt. 3) of 0.561 h⁻¹. The Kobs ([1]; 37° C., alkyne 2c 0.75 mM, Expt. 1) was 0.0506 h⁻¹, the Kobs ([1]; 37° C., alkyne 2c 0.75 mM, Expt. 2) was 0.0584 h⁻¹ and the Kobs ([1]; 37° C., alkyne 2c 0.75 mM, Expt. 3) was 0.0599 h⁻¹. For the same compound, the Kobs ([1]; 37° C., alkyne 2c 1.00 mM, Expt. 1) was 0.0670 h⁻¹, the Kobs ([1]; 37° C., alkyne 2c 1.00 mM, Expt. 2) was 0.0781 h⁻¹ and the Kobs ([1]; 37° C., alkyne 2c 1.00 mM, Expt. 3) was 0.0801 h⁻¹. The Kobs ([1]; 37° C., alkyne 2c 1.25 mM, Expt. 1) was 0.083 h⁻¹, the Kobs ([1]; 37° C., alkyne 2c 1.25 mM, Expt. 2) was 0.0978 h⁻¹ and the Kobs ([1]; 37° C., alkyne 2c 1.25 mM, Expt. 3) was 0.101 h⁻¹. The Kobs ([1]; 37° C., alkyne 2d 0.25 mM, Expt. 1) was 1.82 h⁻¹, the Kobs ([1]; 37° C., alkyne 2d 0.25 mM, Expt. 2) was 1.64 h⁻¹ and the Kobs ([1]; 37° C., alkyne 2d 0.25 mM, Expt. 3) was 1.90 h⁻¹. The Kobs ([1]; 37° C., alkyne 2d 0.3 mM, Expt. 1) was 2.15 h⁻¹, the Kobs ([1]; 37° C., alkyne 2d 0.3 mM, Expt. 2) was 1.94 h⁻¹ and the Kobs ([1]; 37° C., alkyne 2d 0.3 mM, Expt. 3) was 2.26 h⁻¹. The Kobs ([1]; 37° C., alkyne 2d 0.35 mM, Expt. 1) was 2.53 h⁻¹, the Kobs ([1]; 37° C., alkyne 2d 0.35 mM, Expt. 2) was 2.25 h⁻¹ and the Kobs ([1]; 37° C., alkyne 2d 0.35 mM, Expt. 3) was 2.65 h⁻¹. For the same compound, the “k2 at 37° C. (second order rate constant)” value ([1]; alkyne 2b, 37° C.) was 0.14 M⁻¹ s⁻¹ and 0.14 ± 0.04 M⁻¹ s⁻¹, the “k2 at r.t (second order rate constant)” value ([1]; alkyne 2b, r.t) was 0.042 M⁻¹ s⁻¹ and 0.042 ± 0.012 M⁻¹ s⁻¹ and the “k2 at 37° C. (second order rate constant)” value ([1]; alkyne 2c, 37° C.) was 0.021 M⁻¹ s⁻¹ and 0.021 ± 0.005 M⁻¹ s⁻¹. For the same compound, the “k2 at r.t (second order rate constant)” value ([1]; alkyne 2c, r.t) was 0.0075 M⁻¹ s⁻¹ and 0.0075 ± 0.0009 M⁻¹ s⁻¹, the “k2 at 37° C. (second order rate constant)” value ([1]; alkyne 2d, 37° C.) was 1.9 M⁻¹ s⁻¹ and 1.9 ± 0.4 M⁻¹ s⁻¹ and the “k2 at r.t (second order rate constant)” value ([1]; alkyne 2d, r.t) was 0.25 M⁻¹ s⁻¹ and 0.25 ± 0.06 M⁻¹ s⁻¹. It also gave a Kobs ([1]; r.t, alkyne 2b 0.75 mM, Expt. 1) of 0.125 h⁻¹, a Kobs ([1]; r.t, alkyne 2b 0.75 mM, Expt. 2) of 0.115 h⁻¹ and a Kobs ([1]; r.t, alkyne 2b 0.75 mM, Expt. 3) of 0.13 h⁻¹. For the same compound, the Kobs ([1]; r.t, alkyne 2b 1.00 mM, Expt. 1) was 0.155 h⁻¹, the Kobs ([1]; r.t, alkyne 2b 1.00 mM, Expt. 2) was 0.148 h⁻¹ and the Kobs ([1]; r.t, alkyne 2b 1.00 mM, Expt. 3) was 0.175 h⁻¹. For the same compound, the Kobs ([1]; r.t, alkyne 2b 1.25 mM, Expt. 1) was 0.199 h⁻¹, the Kobs ([1]; r.t, alkyne 2b 1.25 mM, Expt. 2) was 0.180 h⁻¹ and the Kobs ([1]; r.t, alkyne 2b 1.25 mM, Expt. 3) was 0.22 h⁻¹. For the same compound, the Kobs ([1]; r.t, alkyne 2c 0.75 mM, Expt. 1) was 0.0203 h⁻¹, the Kobs ([1]; r.t, alkyne 2c 0.75 mM, Expt. 2) was 0.0201 h⁻¹ and the Kobs ([1]; r.t, alkyne 2c 0.75 mM, Expt. 3) was 0.0217 h⁻¹. For the same compound, the Kobs ([1]; r.t, alkyne 2c 1.00 mM, Expt. 1) was 0.0273 h⁻¹, the Kobs ([1]; r.t, alkyne 2c 1.00 mM, Expt. 2) was 0.0269 h⁻¹ and the Kobs ([1]; r.t, alkyne 2c 1.00 mM, Expt. 3) was 0.0289 h⁻¹. It also gave a Kobs ([1]; r.t, alkyne 2c 1.25 mM, Expt. 1) of 0.0339 h⁻¹, a Kobs ([1]; r.t, alkyne 2c 1.25 mM, Expt. 2) of 0.0324 h⁻¹ and a Kobs ([1]; r.t, alkyne 2c 1.25 mM, Expt. 3) of 0.0359 h⁻¹. The Kobs ([1]; r.t, alkyne 2d 0.75 mM, Expt. 1) was 0.752 h⁻¹, the Kobs ([1]; r.t, alkyne 2d 0.75 mM, Expt. 2) was 0.704 h⁻¹ and the Kobs ([1]; r.t, alkyne 2d 0.75 mM, Expt. 3) was 0.756 h⁻¹. For the same compound, the Kobs ([1]; r.t, alkyne 2d 1.00 mM, Expt. 1) was 0.980 h⁻¹, the Kobs ([1]; r.t, alkyne 2d 1.00 mM, Expt. 2) was 0.802 h⁻¹ and the Kobs ([1]; r.t, alkyne 2d 1.00 mM, Expt. 3) was 1.01 h⁻¹. It also gave a Kobs ([1]; r.t, alkyne 2d 1.25 mM, Expt. 1) of 1.20 h⁻¹, a Kobs ([1]; r.t, alkyne 2d 1.25 mM, Expt. 2) of 1.10 h⁻¹ and a Kobs ([1]; r.t, alkyne 2d 1.25 mM, Expt. 3) of 1.26 h⁻¹. The “Lactonization rate constant k1” value ([2]; alkyne 2b 5 mM, Exp 2) was 0.184 h⁻¹, the “Lactonization rate constant k1” value ([2]; alkyne 2b 5 mM, Expt 1) was 0.162 h⁻¹ and the “Lactonization rate constant k1” value ([2]; alkyne 2b 5 mM, Expt. 3) was 0.142 h⁻¹. For the same compound, the “k1 at r.t (lactonization)” value ([2]; alkyne 2b, n = 3) was 0.16 ± 0.04 h⁻¹, the “k1 at r.t (lactonization)” value ([2]; alkyne 2c, no intermediates observed by HPLC) was “too fast to detect” and the “Lactonization rate constant k1” value ([2]; alkyne 2d 5 mM, Exp 2) was 0.0291 h⁻¹. For the same compound, the “Lactonization rate constant k1” value ([2]; alkyne 2d 5 mM, Expt 1) was 0.0253 h⁻¹, the “Lactonization rate constant k1” value ([2]; alkyne 2d 5 mM, Expt. 3) was 0.0332 h⁻¹ and the “k1 at r.t (lactonization)” value ([2]; alkyne 2d, n = 3) was 0.029 ± 0.006 h⁻¹.
